Test results published in US20240116922A1, “IMIDAZO[1,2-A]PYRIDINE DERIVATIVES AS IRAK4 INHIBITORS AND THEIR USE IN THE TREATMENT OF DISEASE” (BIOGEN MA INC., priority 2020, published 2024).
Values after ≈ are worked out from the molar mass of the structure shown. Structures can show the parent of a compound that is named as a salt.

Key:
[1] = Kinetic solubility assay (CLND), pH 6.8; type: physicochemical; conditions: potassium phosphate buffer pH 6.8, 2% DMSO, 24 hours at ambient temperature; for solubility kinetic at 24 h: aqueous buffer, kinetic from dmso stock
[2] = biological target: Human MDR1 transfected MDCK cells (Homo sapiens (Human), UniProt P08183); assay: MDR1-MDCK assay; conditions: 1 μM test concentration, 120 minutes incubation
Sequence of Human MDR1 transfected MDCK cells (P08183 whole entry): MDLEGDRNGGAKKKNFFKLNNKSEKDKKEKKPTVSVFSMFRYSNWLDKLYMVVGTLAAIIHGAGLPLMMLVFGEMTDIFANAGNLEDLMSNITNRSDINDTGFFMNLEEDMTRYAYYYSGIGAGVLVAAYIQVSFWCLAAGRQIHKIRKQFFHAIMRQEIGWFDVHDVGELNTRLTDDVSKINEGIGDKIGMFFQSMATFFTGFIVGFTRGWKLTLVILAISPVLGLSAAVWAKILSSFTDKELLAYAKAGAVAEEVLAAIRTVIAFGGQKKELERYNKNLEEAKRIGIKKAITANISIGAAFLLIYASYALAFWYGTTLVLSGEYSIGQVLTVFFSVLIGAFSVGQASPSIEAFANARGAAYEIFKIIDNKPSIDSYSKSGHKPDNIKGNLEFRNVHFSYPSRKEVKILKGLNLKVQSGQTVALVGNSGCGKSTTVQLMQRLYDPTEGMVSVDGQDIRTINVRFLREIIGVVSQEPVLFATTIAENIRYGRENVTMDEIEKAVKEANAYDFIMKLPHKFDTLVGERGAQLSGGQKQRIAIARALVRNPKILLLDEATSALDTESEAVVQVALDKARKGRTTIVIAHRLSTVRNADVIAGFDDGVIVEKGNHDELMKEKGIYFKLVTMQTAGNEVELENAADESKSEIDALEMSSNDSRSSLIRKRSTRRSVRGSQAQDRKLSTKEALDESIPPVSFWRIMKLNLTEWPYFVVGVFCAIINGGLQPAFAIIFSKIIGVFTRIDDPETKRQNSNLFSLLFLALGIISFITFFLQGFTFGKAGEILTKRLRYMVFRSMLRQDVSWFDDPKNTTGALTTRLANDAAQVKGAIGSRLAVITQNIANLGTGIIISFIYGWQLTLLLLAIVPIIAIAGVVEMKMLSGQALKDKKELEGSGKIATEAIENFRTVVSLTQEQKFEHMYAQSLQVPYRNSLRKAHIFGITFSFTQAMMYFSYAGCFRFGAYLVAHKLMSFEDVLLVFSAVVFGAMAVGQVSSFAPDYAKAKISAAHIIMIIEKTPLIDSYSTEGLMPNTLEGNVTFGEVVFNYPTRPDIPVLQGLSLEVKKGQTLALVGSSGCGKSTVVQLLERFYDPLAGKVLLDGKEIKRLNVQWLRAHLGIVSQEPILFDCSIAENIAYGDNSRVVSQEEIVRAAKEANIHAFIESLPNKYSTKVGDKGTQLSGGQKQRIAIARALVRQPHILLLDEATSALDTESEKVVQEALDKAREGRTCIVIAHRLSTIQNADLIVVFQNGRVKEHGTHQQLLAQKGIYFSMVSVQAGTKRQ

IRAK4 = IRAK4 (Homo sapiens (Human), UniProt Q9NWZ3); assay: IRAK4 MSD biochemical assay (2-hour 1 mM ATP); conditions: 0.1 nM IRAK4, 1 mM ATP, 2 hour at room temperature
Sequence of IRAK4 (Q9NWZ3 whole entry, the tested form may be a part): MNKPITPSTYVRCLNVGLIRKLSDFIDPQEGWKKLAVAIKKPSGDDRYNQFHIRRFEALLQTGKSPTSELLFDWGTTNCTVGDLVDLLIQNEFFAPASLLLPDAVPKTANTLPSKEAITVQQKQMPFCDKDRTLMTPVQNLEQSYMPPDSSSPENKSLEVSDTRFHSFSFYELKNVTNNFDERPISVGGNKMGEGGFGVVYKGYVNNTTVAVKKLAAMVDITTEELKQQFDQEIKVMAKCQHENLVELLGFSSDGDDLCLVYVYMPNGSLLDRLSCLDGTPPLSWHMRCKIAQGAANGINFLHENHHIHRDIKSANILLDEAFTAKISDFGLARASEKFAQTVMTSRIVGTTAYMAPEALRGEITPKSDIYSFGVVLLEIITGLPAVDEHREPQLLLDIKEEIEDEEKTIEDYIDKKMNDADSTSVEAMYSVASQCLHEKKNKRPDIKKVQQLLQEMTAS

[3] = Kpuu assay (in vivo brain-to-plasma unbound partition); conditions: brain (unbound) versus plasma (unbound); intravenous infusion 4 to 24 h; unbound brain/plasma ratio; read-out: Brain Kpu, u
MDR1 = MDR1 (Homo sapiens (Human), UniProt P08183); assay: in vitro; conditions: MDCK-MDR1
Sequence of MDR1 (P08183 whole entry): as the sequence (P08183 whole entry) above

IC50 (IRAK4)	Kpuu (unbound brain-to-plasma partition coefficient) [3]	solubility kinetic at 24 h [1]	efflux ratio at 120 min, 1 μM (MDR1)	SMILES	pH 6.8 Solubility (ug/mL) [1]	MDR1-MDCK Efflux Ratio [2]
0.2 nM	0	7.2 µg/mL (≈ 15.1 µM)	1.5	Cc1cnc2c(NC(=O)c3cn4cc(C56CCC(C)(CC5)OC6)nc4nc3OC(C)C)cnn2c1 [Comparator 6B, 7-isopropoxy-2-(1-methyl-2-oxabicyclo[2.2.2]octan-4-yl)-N-(6-methylpyrazolo[1,5-a]pyrimidin-3-yl)imidazo[1,2-a]pyrimidine-6-carboxamide, reference compound]		
0.2 nM	0.26	57.4 µg/mL (≈ 124 µM)	7.1	CC(C)Oc1cc2nc([C@@]34CC[C@@](C)(C3)OC4)cn2cc1C(=O)Nc1cccn(C2CC2)c1=O (single isomer, unassigned) [Example 4]		
0.2 nM	0.3	0.3 µg/mL (≈ 0.672 µM)	4.3	Cc1cnc2c(NC(=O)c3cn4cc(C56COC(C)(C5)C6)nc4cc3OC(C)C)cnn2c1 [Comparator 1B, 7-isopropoxy-2-(1-methyl-2-oxabicyclo[2.1.1]hexan-4-yl)-N-(6-methylpyrazolo[1,5-a]pyrimidin-3-yl)imidazo[1,2-a]pyridine-6-carboxamide, reference compound]		
0.4 nM	0.41	78.6 µg/mL (≈ 164 µM)	8.1	CC[C@H](C)Oc1cc2nc(C34COC(CF)(C3)C4)cn2cc1C(=O)Nc1cccn(C2CC2)c1=O (single isomer, unassigned) [Example 15]		
1.3 nM	0.96	48.8 µg/mL (≈ 102 µM)	2.8	CC(C)Oc1c(C(=O)Nc2cccn(C3CC3)c2=O)cn2cc([C@@]34CC[C@@](C)(C3)OC4)nc2c1F (single isomer, unassigned) [Example 67]		
0.6 nM	0.67	37.7 µg/mL (≈ 77.7 µM)	7.4	CC(C)Oc1nc2nc(C34COC(C)(C3)C4)cn2cc1C(=O)Nc1cccn(C2CC2(F)F)c1=O (centres unmarked) [Example 84, N-(1-(2,2-difluorocyclopropyl)-2-oxo-1,2-dihydropyridin-3-yl)-7-isopropoxy-2-(1-methyl-2-oxabicyclo[2.1.1]hexan-4-yl)imidazo[1,2-a]pyrimidine-6-carboxamide]		
0.2 nM	0.19	55.1 µg/mL	10.9	CC(C)Oc1nc2nc(C34CCC(C)(C3)OC4)cn2cc1C(=O)Nc1cccn([C@H]2C[C@H]2C)c1=O (stereo in doubt) [Example 187, 7-isopropoxy-2-((1R,4S)-1-methyl-2-oxabicyclo[2.2.1]heptan-4-yl)-N-(1-((1S,2R)-2-methylcyclopropyl)-2-oxo-1,2-dihydropyridin-3-yl)imidazo[1,2-a]pyrimidine-6-carboxamide trifluoroacetate]		
0.7 nM	0.89	45.7 µg/mL (≈ 95.7 µM)	2.9	CC(C)Oc1nc2nc(C34COC(C)(C3)C4)cn2cc1C(=O)Nc1cccn([C@H]2CC2(C)C)c1=O (single isomer, unassigned) [Example 79]		
0.2 nM	0.32	64.7 µg/mL	10.8	CC(C)Oc1nc2nc([C@]34CC[C@](C)(C3)OC4)cn2cc1C(=O)Nc1cccn([C@H]2C[C@H]2C)c1=O (single isomer, unassigned) [Example 186, trifluoroacetate]		
0.3 nM	0.61	7.2 µg/mL (≈ 15.1 µM)	2.7	CC(C)Oc1nc2nc(C34CCC(C)(CC3)OC4)cn2cc1C(=O)Nc1cccn(C2CC2)c1=O [Example 77, N-(1-cyclopropyl-2-oxo-1,2-dihydropyridin-3-yl)-7-isopropoxy-2-(1-methyl-2-oxabicyclo[2.2.2]octan-4-yl)imidazo[1,2-a]pyrimidine-6-carboxamide]		
0.9 nM	0.2	48.5 µg/mL (≈ 114 µM)	1.8	CC(C)Oc1nc2nc(C34CCC(C)(CC3)OC4)cn2cc1C(=O)Nc1ccn(C)n1 [Comparator 6C, 7-isopropoxy-N-(1-methyl-1H-pyrazol-3-yl)-2-(1-methyl-2-oxabicyclo[2.2.2]octan-4-yl)imidazo[1,2-a]pyrimidine-6-carboxamide, reference compound]		
0.3 nM	0.49	75.9 µg/mL (≈ 158 µM)	5.4	CC(C)Oc1cc2nc([C@]34CC[C@](CF)(C3)OC4)cn2cc1C(=O)Nc1cccn(C2CC2)c1=O (single isomer, unassigned) [Example 8]		

SMILES	IC50 (IRAK4)	Kpuu (unbound brain-to-plasma partition coefficient) [3]	solubility kinetic at 24 h [1]	efflux ratio at 120 min, 1 μM (MDR1)	pH 6.8 Solubility (ug/mL) [1]	MDR1-MDCK Efflux Ratio [2]
O=C(Nc1cccn(C2CC2)c1=O)c1cn2cc(C34COC(C3)C4)nc2nc1OC1CCC1 [Example 36, 2-(2-oxabicyclo[2.1.1]hexan-4-yl)-7-cyclobutoxy-N-(1-cyclopropyl-2-oxo-1,2-dihydropyridin-3-yl)imidazo[1,2-a]pyrimidine-6-carboxamide]	1.7 nM				20.8 ug/mL	6.4
CC(C)Oc1cc2nc(C34COC(CF)(C3)C4)cn2cc1C(=O)Nc1cccn(C2CC2)c1=O [Example 9, N-(1-cyclopropyl-2-oxo-1,2-dihydropyridin-3-yl)-2-(1-(fluoromethyl)-2-oxabicyclo[2.1.1]hexan-4-yl)-7-isopropoxyimidazo[1,2-a]pyridine-6-carboxamide]	0.4 nM	0.18	70.6 µg/mL (≈ 151 µM)	9.7		
CC12CC(c3cn4cc(C(=O)Nc5cccn(C6CC6)c5=O)c(OC5CCC5)cc4n3)(CO1)C2 [Example 27, 7-cyclobutoxy-N-(1-cyclopropyl-2-oxo-1,2-dihydropyridin-3-yl)-2-(1-methyl-2-oxabicyclo[2.1.1]hexan-4-yl)imidazo[1,2-a]pyridine-6-carboxamide]	0.6 nM	0.42	65.7 µg/mL (≈ 143 µM)	4		
